According to article PMC6436837 (Antiviral research, 2018):
Where two headings read alike, the source gives them in different places.

Columns and labels:
ISRE promoter [1] = format: cell-based, human
ISG54, ISG56, and MX1 = format: cell-based, human
EBOV-GFP [2] = test: microbe, parasite or virus in culture; format: cell-based, Ebola virus; settings: for IC50: read-out: IC50 against EBOV-GFP
ISRE promoter [3] = format: cell-based, mouse
EBOV-GFP [4] = format: cell-based, Ebola virus
ZIKV = test: microbe, parasite or virus in culture; format: cell-based, Zika virus; settings: read-out: IC50 against ZIKV
VSV-GFP = test: microbe, parasite or virus in culture; format: cell-based, vesicular stomatitis virus; settings: read-out: IC50 against VSV-GFP
EBOV polymerase complex = format: cell-based, Ebola virus

| SMILES | Activation of ISRE promoter (ISRE promoter [1]) | Effect on cell viability (Vero cells) | ISG54 and ISG56 mRNA response (ISG54, ISG56, and MX1) | IC50 (EBOV-GFP [2]) | Effect on cell viability (A549 cells) | ISRE reporter induction in MEFs (ISRE promoter [3]) | Reduction of viral titers in cell culture supernatants (EBOV-GFP [4]) | IC50 (ZIKV) | IC50 (VSV-GFP) | Activity in EBOV MG assay (EBOV polymerase complex) | Activity against EBOV-GFP (EBOV-GFP [2]) | Inhibition of EBOV replication (EBOV-GFP [4]) | IC50 (EBOV-GFP [2]; Zaire ebolavirus, HeLa, 24 h) | IC50 (ZIKV; Zika virus, Vero, 48 h) | IC50 (VSV-GFP; Vesicular stomatitis virus, Vero, 21 h) | IC50 (EBOV polymerase complex; read-out: IC50 in EBOV MG assay) |
| --- | --- | --- | --- | --- | --- | --- | --- | --- | --- | --- | --- | --- | --- | --- | --- | --- |
| O=C(NC1CCCc2c1[nH]c1ccc(Cl)cc21)c1ccccn1 (stereo not drawn) [SW835] | activated the ISRE promoter | no significant effect on cell viability | responded | ~20 nM | no effect on cell viability | not affected in IFNAR knockout cells | > 200 fold | 40 nM | 400 nM | potent activity |  |  |  |  |  |  |
| O=C(N[C@@H]1CCCc2c1[nH]c1ccc(Cl)cc21)c1ccccn1 [GSK983, reference compound] |  |  |  |  | no effect on cell viability |  | > 200 fold |  |  |  | highly active, even at the lowest concentration tested |  |  |  |  |  |
| O=C(NC1CCCc2c1[nH]c1ccc(Cl)cc21)c1ccccn1 (stereo not drawn) [SW308] |  |  |  | 1700 nM |  |  |  |  |  | less active |  | unable to inhibit EBOV virus replication efficiently |  |  |  |  |
| Cc1c(-c2ccc(-c3ccccc3F)cc2)nc2ccc(F)cc2c1C(=O)O [brequinar, reference compound] | activated the ISRE promoter |  | responded |  |  | not statistically significant compared to DMSO-treated cells |  |  |  |  |  | potently inhibited virus growth | 100 nM | 300 nM | 500 nM | 100 nM |
